≈ marks a conversion by molar mass, not a printed value.

For test [1], the system named is Candida albicans. In words: microbe, parasite or virus in culture. The test is classed as functional. As to conditions: ATCC 10231, 24 h.
Description: Anti-fungal activity against Candida albicans ATCC 10231 measured after 24 hrs by microtiter broth dilution method
Test [2] has as its system Staphylococcus aureus. In words: Anti-bacterial activity against Staphylococcus aureus ATCC 10832 measured after 24 hrs by microtiter broth dilution method. In kind it is functional. As to conditions: ATCC 10832, 24 h.
Test [3] has as its system Escherichia coli. In words: Anti-bacterial activity against Escherichia coli ATCC 11303 measured after 24 hrs by microtiter broth dilution method. In kind it is functional. As to conditions: ATCC 11303, 24 h. (Dilution methods test growth across graded concentrations, often in twofold steps.)
Test [4] deals with Bacillus subtilis. In words: Anti-bacterial activity against Bacillus subtilis ATCC 33712 measured after 24 hrs by microtiter broth dilution method. The test is classed as functional. As to conditions: ATCC 33712, 24 h.
Test [5] concerns Staphylococcus aureus. In words: Anti-bacterial activity against methicillin-resistant Staphylococcus aureus ATCC 700699 measured after 24 hrs by microtiter broth dilution method. In kind it is functional. As to conditions: Mu50, 24 h.
Test [6] has as its system Bacillus subtilis. In words: Potency index, ratio of Cefradine MIC to compound MIC for anti-bacterial activity against Bacillus subtilis ATCC 33712.
In test [7] the test system is Bacillus subtilis. In words: Potency index, ratio of sodium penicillin IC50 to compound IC50 for anti-bacterial activity against Bacillus subtilis ATCC 33712. The test is classed as functional.
In test [8] the test system is Bacillus subtilis. In words: Potency index, ratio of Cefotaxime IC50 to compound IC50 for anti-bacterial activity against Bacillus subtilis ATCC 33712. In kind it is functional.
Test [9] deals with Bacillus subtilis. In words: Potency index, ratio of ceftazidime IC50 to compound IC50 for anti-bacterial activity against Bacillus subtilis ATCC 33712. The test is classed as functional.

For the compound `Cc1oc(-c2ccccc2)nc1CCCc1nc2cc(C[C@H](Oc3ccc(C(C)(C)C)cc3)C(=O)O)ccc2o1`, the MIC in test [1] was over 200 µg/mL; in [2], 1.56 µg/mL (≈ 2.9 µM); in [3] it was 3.12 µg/mL (≈ 5.79 µM); in test [4], 3.12 µg/mL (≈ 5.79 µM); in test [5], 1.56 µg/mL (≈ 2.9 µM).

Turning to `CC(C)(C)c1ccc(O[C@@H](Cc2ccc3oc(CCc4cn5cc(C(F)(F)F)ccc5n4)nc3c2)C(=O)O)cc1`, the MIC in [1] was over 200 µg/mL; in test [2] it was 50 µg/mL (≈ 90.7 µM); in test [3], over 200 µg/mL; in test [4], 50 µg/mL (≈ 90.7 µM); in [5] it was 25 µg/mL (≈ 45.3 µM).

Take `CCCCCCCc1nc2cc(C[C@H](Oc3ccc(C(C)(C)C)cc3)C(=O)O)ccc2o1`: the MIC in test [1] is over 200 µg/mL; in test [2] it was 0.78 µg/mL (≈ 1.78 µM); in test [3], 1.56 µg/mL (≈ 3.57 µM); in test [4], 0.78 µg/mL (≈ 1.78 µM); in test [5] it was 1.56 µg/mL (≈ 3.57 µM).

For the compound `Cc1oc(-c2ccccc2)nc1CCc1nc2cc(C[C@H](Oc3ccc(C(C)(C)C)cc3)C(=O)O)ccc2o1`, the MIC in test [1] was over 200 µg/mL; in test [2] it was 1.56 µg/mL (≈ 2.97 µM); in test [3] it was 1.56 µg/mL (≈ 2.97 µM); in [4] it was 0.78 µg/mL (≈ 1.49 µM); in test [5] it was 0.78 µg/mL (≈ 1.49 µM).

`CC(C)c1ccc(CCc2nc3cc(C[C@H](Oc4ccc(C(C)(C)C)cc4)C(=O)O)ccc3o2)cc1`: the MIC in test [1] was over 200 µg/mL; in test [2], 0.39 µg/mL (≈ 0.803 µM); in test [3], 0.78 µg/mL (≈ 1.61 µM); in test [4], 0.098 µg/mL (≈ 0.202 µM); in [5], 0.195 µg/mL (≈ 0.402 µM). Further, the “Ratio MIC” value in test [6] is given as 8 - 510. Besides, the “Ratio IC50” value is given as 2 in [7], 8 - 510 in [8] and 8 - 510 in [9].

As to `CC(C)(C)c1ccc(O[C@@H](Cc2ccc3oc(CCc4ncco4)nc3c2)C(=O)O)cc1`, the MIC in test [1] is over 200 µg/mL; in test [2], over 200 µg/mL; in [3] it was over 200 µg/mL; in test [4] it was 200 µg/mL (≈ 460 µM); in [5], 200 µg/mL (≈ 460 µM).

Turning to `CC(C)(C)c1ccc(O[C@@H](Cc2ccc3oc(CC4CCOCC4)nc3c2)C(=O)O)cc1`, the MIC in [1] is over 200 µg/mL; in [3], over 200 µg/mL; in [4] it was 200 µg/mL (≈ 457 µM).

With `COc1cc(CCc2nc3cc(C[C@H](Oc4ccc(C(C)(C)C)cc4)C(=O)O)ccc3o2)cc(OC)c1OC`, the MIC in test [1] was over 200 µg/mL; in [2] it was 100 µg/mL (≈ 187 µM); in test [3] it was 200 µg/mL (≈ 375 µM); in test [4], 100 µg/mL (≈ 187 µM); in test [5], 100 µg/mL (≈ 187 µM).

As for `CC(C)Cc1nc2cc(C[C@H](Oc3ccc(C(C)(C)C)cc3)C(=O)O)ccc2o1`, the MIC is over 200 µg/mL in test [1], 3.12 µg/mL (≈ 7.89 µM) in test [3] and 1.56 µg/mL (≈ 3.94 µM) in [4].

As to `CC(C)(C)c1ccc(O[C@@H](Cc2ccc3oc(CCc4ccccc4)nc3c2)C(=O)O)cc1`, the MIC in test [1] was over 200 µg/mL; in test [2], 1.56 µg/mL (≈ 3.52 µM); in test [3], 3.12 µg/mL (≈ 7.03 µM); in [4], 0.39 µg/mL (≈ 0.879 µM); in test [5], 1.56 µg/mL (≈ 3.52 µM).

Consider `CC(C)(C)c1ccc(O[C@@H](Cc2ccc3oc(CCc4cc5ccccc5o4)nc3c2)C(=O)O)cc1`, for which the MIC is over 200 µg/mL in test [1]; 0.78 µg/mL (≈ 1.61 µM) in [2]; 0.78 µg/mL (≈ 1.61 µM) in test [3]; 0.39 µg/mL (≈ 0.807 µM) in test [4]; 0.78 µg/mL (≈ 1.61 µM) in test [5].

For `CC(C)(C)c1ccc(O[C@@H](Cc2ccc3oc(CCc4ccc(F)cc4)nc3c2)C(=O)O)cc1`, the MIC in test [1] is over 200 µg/mL; in [2], 1.56 µg/mL (≈ 3.38 µM); in test [3] it was 1.56 µg/mL (≈ 3.38 µM); in test [4], 0.39 µg/mL (≈ 0.845 µM); in test [5], 1.56 µg/mL (≈ 3.38 µM).

As to `CO/N=C(\C(=O)N[C@@H]1C(=O)N2C(C(=O)O)=C(COC(C)=O)CS[C@H]12)c1csc(N)n1` [CEFOTAXIME], the MIC was 3.12 µg/mL (≈ 6.85 µM) in test [2], 200 µg/mL (≈ 439 µM) in test [3], 0.78 µg/mL (≈ 1.71 µM) in test [4] and 3.12 µg/mL (≈ 6.85 µM) in test [5].

Turning to `CC(C)(O/N=C(\C(=O)N[C@@H]1C(=O)N2C(C(=O)[O-])=C(C[n+]3ccccc3)CS[C@H]12)c1csc(N)n1)C(=O)O` [CEFTAZIDIME], the MIC in test [2] is 0.78 µg/mL (≈ 1.43 µM); in test [3], 200 µg/mL (≈ 366 µM); in test [4] it was 6.25 µg/mL (≈ 11.4 µM); in test [5], 12.5 µg/mL (≈ 22.9 µM).

Turning to `CC1=C(C(=O)O)N2C(=O)[C@@H](NC(=O)[C@H](N)C3=CCC=CC3)[C@H]2SC1` [CEPHRADINE], the MIC in [2] was 25 µg/mL (≈ 71.5 µM); in [3], 25 µg/mL (≈ 71.5 µM); in [4], 50 µg/mL (≈ 143 µM); in [5], 50 µg/mL (≈ 143 µM).

Take `CC(=O)N1CCN(c2ccc(OCC3COC(Cn4ccnc4)(c4ccc(Cl)cc4Cl)O3)cc2)CC1` (stereo not drawn) [KETOCONAZOLE]: the MIC in [1] is under 0.39 µg/mL.

On to `Clc1ccc(COC(Cn2ccnc2)c2ccc(Cl)cc2Cl)c(Cl)c1.O=[N+]([O-])O` (stereo not drawn) [MICONAZOLE NITRATE], for which the MIC in [1] was 1.56 µg/mL.

On to `CC1(C)S[C@@H]2[C@H](NC(=O)Cc3ccccc3)C(=O)N2[C@H]1C(=O)[O-].[Na+]` [PENICILLIN G SODIUM], for which the MIC in test [2] is 3.12 µg/mL; in test [3], 0.78 µg/mL; in [4] it was 0.195 µg/mL; in [5] it was 3.12 µg/mL.

(Values after ChEMBL document CHEMBL4002545, “Design, synthesis and antimicrobial evaluation of novel benzoxazole derivatives” (2017).)
